# Measured values: patent publication US20050222207A1, “Phosphodiesterase 4 inhibitors, including N-substituted diarylamine analogs” (priority 2003, published 2005)
# Assays:
# rats [1] = experiment: Radial arm maze task in rats, in vivo test for learning and memory (MK-801 amnesia); parameters: species or system rat; details: MK-801 0.1 mg/kg i.p., compared to control, p<0.01
# Experimental: The test was performed as previously described (Zhang, H.-T., Crissman, A. M., Dorairaj, N. R., Chandler, L. J., and O'Donnell, J. M., Neuropsychopharmacology, 2000, 23, 198-204.). Five days after initial housing, rats (male Spraque-Dawley (Harlan) weighing 250 to 350 g) were placed in the eight-arm radial maze (each arm was 60×10×12 cm high; the maze was elevated 70 cm above the floor) for acclimation for two days. Rats were then placed individually in the center of the maze for 5 minutes with food pellets placed close to the food wells, and then, the next day, in the wells at the end of the arms; 2 sessions a day were conducted. Next, four randomly selected arms were then baited with one pellet of food each. The rat was restricted to the center platform (26 cm in diameter) for 15 seconds and then allowed to move freely throughout the maze until it collected all pellets of food or 10 minutes passed, whichever came first. Four parameters were recorded: 1) working memory errors, i.e., entries into baited arms that had already been visited during the same trial; 2) reference memory errors, i.e., entries into unbaited arms; 3) total arm entries; and 4) the test duration (seconds), i.e., the time spent in the collection of all the pellets in the maze. […]
# (§1) All data were analyzed by analyses of variance (ANOVA); individual comparisons were made using Kewman-Keuls tests. […]
# rats [2] = experiment: Passive avoidance in rats, in vivo test for learning and memory (MK-801 amnesia); parameters: species or system rat; details: MK-801 0.1 mg/kg, retention test 24 hours after shock, compared to vehicle, p<0.001
# Experimental: The test was performed as previously described (Zhang, H.-T., Crissman, A. M., Dorairaj, N. R., Chandler, L. J., and O'Donnell, J. M., Neuropsychopharmacology, 2000, 23, 198-204.). The apparatus (Model E10-16SC, Coulbourn Instruments, Allentown, Pa.) consisted of a two-compartment chamber with an illuminated compartment connected to a darkened compartment by a guillotine door. The floor of the darkened compartment consisted of stainless steel rods through which an electric foot-shock could be delivered from a constant current source. All experimental groups were first habituated to the apparatus the day before the start of the experiment. During the training, the rat (Male Spraque-Dawley (Harlan) weighing 250 to 350 g) was placed in the illuminated compartment facing away from the closed guillotine door for 1 minute before the door was raised. The latency for entering the darkened compartment was recorded. After the rat entered the darkened compartment, the door was closed and a 0.5 mA electric shock was administered for 3 seconds. […] The latency for entering the darkened compartment was recorded for up to 180 seconds, at which time the trial was terminated.
# as §1
SMILES,melting point,frequency of reference memory errors (rats [1]),frequency of working memory errors (rats [1]),latency for entering the darkened compartment (rats [2])
COc1cc(N(Cc2cncs2)c2ccc(C(=O)O)cc2)ccc1C(N)=O,196.7 to 196.8 °C,–,–,–
C[C@]12N[C@H](Cc3ccccc31)c1ccccc12 [MK-801],–,increased,increased,markedly reduced
